Values joined by “and” are separate entries in the source; they are usually repeats but may differ in a detail not shown here. Equal entries are not always repeated. Inconclusive results and toxic doses are left out. How the source made its calls: active means survival T/C of 150% or more; inactive means T/C below 125% in these data.
Tested on: CD2F1 mice, L1210 leukemia ip, survival T/C
Assay: NCI In Vivo Anticancer Drug Screen. Data for tumor model L1210 Leukemia (intraperitoneal) in CD2F1 (CDF1) mice
Details: higher = longer survival
Summary of the method: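 Implant tumor; dose compound or vehicle; measure endpoint in both groups; report treated divided by control.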

[1] = endpoint: mean survival time, dose: 100.0 mg/kg/injection, schedule: Q01DX001 (ip), vehicle: saline with Tween-80
[2] = endpoint: mean survival time, dose: 100.0 mg/kg/injection, schedule: Q01DX009 (ip), vehicle: saline with Tween-80
[3] = endpoint: mean survival time, dose: 200.0 mg/kg/injection, schedule: Q01DX001 (ip), vehicle: saline with Tween-80
[4] = endpoint: mean survival time, dose: 200.0 mg/kg/injection, schedule: Q01DX009 (ip), vehicle: saline with Tween-80
[5] = endpoint: mean survival time, dose: 400.0 mg/kg/injection, schedule: Q01DX001 (ip), vehicle: saline with Tween-80
[6] = endpoint: mean survival time, dose: 50.0 mg/kg/injection, schedule: Q01DX009 (ip), vehicle: saline with Tween-80
[7] = endpoint: mean survival time, dose: 100.0 mg/kg/injection, schedule: Q04DX003 (ip), vehicle: saline with Tween-80
[8] = endpoint: mean survival time, dose: 200.0 mg/kg/injection, schedule: Q04DX003 (ip), vehicle: saline with Tween-80
[9] = endpoint: mean survival time, dose: 100.0 mg/kg/injection, schedule: Q04DX002 (ip), vehicle: saline
[10] = endpoint: mean survival time, dose: 200.0 mg/kg/injection, schedule: Q04DX002 (ip), vehicle: saline
[11] = endpoint: mean survival time, dose: 400.0 mg/kg/injection, schedule: Q04DX002 (ip), vehicle: saline
[12] = endpoint: mean survival time, dose: 100.0 mg/kg/injection, schedule: Q01DX009 (ip), vehicle: saline

Measured: T/C

Nc1ncnc2c1c1cnc(=O)[nH]c1n2C1OC(CO)C(O)C1O (stereo unspecified)
inactive: endpoint: mean survival time, dose: 20.0 mg/kg/injection, schedule: Q01DX005 (ip), vehicle: alkali diluted with water 97 % of control | endpoint: mean survival time, dose: 40.0 mg/kg/injection, schedule: Q01DX005 (ip), vehicle: alkali diluted with water 97 % of control | endpoint: mean survival time, dose: 80.0 mg/kg/injection, schedule: Q01DX005 (ip), vehicle: alkali diluted with water 96 % of control | endpoint: mean survival time, dose: 160.0 mg/kg/injection, schedule: Q01DX005 (ip), vehicle: alkali diluted with water 97 % of control | endpoint: mean survival time, dose: 320.0 mg/kg/injection, schedule: Q01DX005 (ip), vehicle: alkali diluted with water 110 % of control

Cc1ccc(C(=O)NC2C(=O)NC(C(C)C)C(=O)N3CCCC3C(=O)N(C)CC(=O)N(C)C(C(C)C)C(=O)OC2C)c2c1Oc1c(c(C(=O)NC3C(=O)NC(C(C)C)C(=O)N4CCCC4C(=O)N(C)CC(=O)N(C)C(C(C)C)C(=O)OC3C)c3nc(-c4ccccc4)c(=O)oc3c1C)N2 (stereo unspecified)
inactive: endpoint: median survival time, dose: 0.06 mg/kg/injection, schedule: Q01DX009 (ip), vehicle: water 112 % of control | endpoint: median survival time, dose: 0.12 mg/kg/injection, schedule: Q01DX009 (ip), vehicle: water 122 % of control | endpoint: median survival time, dose: 0.25 mg/kg/injection, schedule: Q01DX009 (ip), vehicle: water 117 % of control

CCCCCCC(=O)/C=C\C(C)=C\c1ccccc1
inactive: [1] 94 % of control | [2] 98 % of control | [3] 100 % of control | [4] 98 % of control | [5] 94 % of control | endpoint: mean survival time, dose: 400.0 mg/kg/injection, schedule: Q01DX009 (ip), vehicle: saline with Tween-80 98 % of control

CCCCCCCN=NC
inactive: endpoint: mean survival time, dose: 75.0 mg/kg/injection, schedule: Q01DX001 (ip), vehicle: other 96 % of control | endpoint: mean survival time, dose: 150.0 mg/kg/injection, schedule: Q01DX001 (ip), vehicle: other 100 % of control | endpoint: mean survival time, dose: 300.0 mg/kg/injection, schedule: Q01DX001 (ip), vehicle: other 93 % of control

CNC(C)C(O)c1ccccc1 (stereo unspecified)
inactive: [6] 100 % of control | [2] 97 % of control

C/C(=C\Cl)CO
inactive: endpoint: mean survival time, dose: 50.0 mg/kg/injection, schedule: Q01DX009 (ip), vehicle: acetone 100 % of control | endpoint: mean survival time, dose: 100.0 mg/kg/injection, schedule: Q01DX009 (ip), vehicle: acetone 106 % of control

OC1c2ccccc2C2CC12 (stereo unspecified)
inactive: [1] 105 % of control | [3] 102 % of control | [5] 105 % of control

NC(=O)c1csc(CSCCO)n1
inactive: endpoint: median survival time, dose: 41.75 mg/kg/injection, schedule: Q01DX005 (ip), vehicle: saline 103 % of control | endpoint: median survival time, dose: 83.5 mg/kg/injection, schedule: Q01DX005 (ip), vehicle: saline 104 % of control | endpoint: median survival time, dose: 167.0 mg/kg/injection, schedule: Q01DX005 (ip), vehicle: saline 102 % of control | endpoint: median survival time, dose: 334.0 mg/kg/injection, schedule: Q01DX005 (ip), vehicle: saline 98 % of control

Nc1cc(Cl)cc2c1-c1ccc(Cl)cc1C2Br (stereo unspecified)
inactive: endpoint: mean survival time, dose: 50.0 mg/kg/injection, schedule: Q01DX001 (ip), vehicle: carboxymethylcellulose (CMC) 102 % of control | endpoint: mean survival time, dose: 100.0 mg/kg/injection, schedule: Q01DX001 (ip), vehicle: carboxymethylcellulose (CMC) 108 % of control | endpoint: mean survival time, dose: 200.0 mg/kg/injection, schedule: Q01DX001 (ip), vehicle: carboxymethylcellulose (CMC) 108 % of control | endpoint: mean survival time, dose: 400.0 mg/kg/injection, schedule: Q01DX001 (ip), vehicle: carboxymethylcellulose (CMC) 108 % of control

[Cl][Pt+2][Cl].[NH-]Cc1ccccc1.[NH-]Cc1ccccc1
inactive: endpoint: mean survival time, dose: 50.0 mg/kg/injection, schedule: Q01DX001 (ip), vehicle: saline with Tween-80 110 % of control | [1] 110 % of control | [3] 110 % of control

CC(C)(C)c1ccc(OCC(=O)O)cc1
inactive: endpoint: mean survival time, dose: 100.0 mg/kg/injection, schedule: Q04DX003 (ip), vehicle: other 100 % of control | endpoint: mean survival time, dose: 200.0 mg/kg/injection, schedule: Q04DX003 (ip), vehicle: other 101 % of control

O=C(c1ccccc1)c1cc(Cl)ccc1N1C(=O)C=CC1=O
inactive: endpoint: mean survival time, dose: 6.25 mg/kg/injection, schedule: Q01DX009 (ip), vehicle: saline with Tween-80 94 % of control | endpoint: mean survival time, dose: 12.5 mg/kg/injection, schedule: Q01DX009 (ip), vehicle: saline with Tween-80 95 % of control | endpoint: mean survival time, dose: 25.0 mg/kg/injection, schedule: Q01DX009 (ip), vehicle: saline with Tween-80 100 % of control

COc1cc2c(cc1OC)C1CC(O)C3CCCCC3N1CC2 (stereo unspecified)
inactive: [7] 93 % of control | [8] 93 % of control

CC1=NCCN1CCN
inactive: [9] 91 % of control | [10] 109 % of control | [11] 113 % of control

CCOP(=O)(NCCOC)OCC
inactive: endpoint: mean survival time, dose: 25.0 mg/kg/injection, schedule: Q01DX009 (ip), vehicle: saline 94 % of control | endpoint: mean survival time, dose: 25.0 mg/kg/injection, schedule: Q04DX003 (ip), vehicle: saline with Tween-80 101 % of control | endpoint: mean survival time, dose: 50.0 mg/kg/injection, schedule: Q01DX009 (ip), vehicle: saline 91 % of control | endpoint: mean survival time, dose: 50.0 mg/kg/injection, schedule: Q04DX003 (ip), vehicle: saline with Tween-80 94 % of control | [12] 88 % of control | [7] 101 % of control

CC(=O)N(C)N=Nc1ccc([N+](=O)[O-])cc1
inactive: endpoint: mean survival time, dose: 25.0 mg/kg/injection, schedule: Q04DX003 (ip), vehicle: Klucel (hydroxypropylcellulose) (HPC) 103 % of control | endpoint: mean survival time, dose: 50.0 mg/kg/injection, schedule: Q04DX003 (ip), vehicle: Klucel (hydroxypropylcellulose) (HPC) 103 % of control | endpoint: mean survival time, dose: 100.0 mg/kg/injection, schedule: Q04DX003 (ip), vehicle: Klucel (hydroxypropylcellulose) (HPC) 97 % of control | endpoint: mean survival time, dose: 200.0 mg/kg/injection, schedule: Q04DX003 (ip), vehicle: Klucel (hydroxypropylcellulose) (HPC) 114 % of control

CCCCC(=O)O.[Pb]
inactive: endpoint: mean survival time, dose: 75.0 mg/kg/injection, schedule: Q01DX001 (ip), vehicle: steriod suspending solution 100 % of control | endpoint: mean survival time, dose: 150.0 mg/kg/injection, schedule: Q01DX001 (ip), vehicle: steriod suspending solution 104 % of control | endpoint: mean survival time, dose: 300.0 mg/kg/injection, schedule: Q01DX001 (ip), vehicle: steriod suspending solution 97 % of control

Nc1nc2ccccc2c2c1C(=O)NC2=O
inactive: [6] 103 % of control | [2] 100 % of control | [7] 95 % of control | [4] 96 % of control | [8] 91 % of control

O=C1OC(C(O)CO)C(O)=C1O (stereo unspecified)
inactive: endpoint: mean survival time, dose: 100.0 mg/kg/injection, schedule: Q01DX001 (ip), vehicle: saline 101 % of control | [12] 93 % of control and 108 % of control | [9] 109 % of control and 112 % of control | endpoint: mean survival time, dose: 100.0 mg/kg/injection, schedule: Q04DX003 (ip), vehicle: saline 106 % of control | endpoint: mean survival time, dose: 200.0 mg/kg/injection, schedule: Q01DX001 (ip), vehicle: saline 101 % of control | endpoint: mean survival time, dose: 200.0 mg/kg/injection, schedule: Q01DX009 (ip), vehicle: saline 86 % of control and 102 % of control | [10] 97 % of control and 104 % of control | endpoint: mean survival time, dose: 200.0 mg/kg/injection, schedule: Q04DX003 (ip), vehicle: saline 98 % of control | endpoint: mean survival time, dose: 400.0 mg/kg/injection, schedule: Q01DX001 (ip), vehicle: saline 106 % of control | endpoint: mean survival time, dose: 400.0 mg/kg/injection, schedule: Q01DX009 (ip), vehicle: saline 89 % of control and 96 % of control | [11] 96 % of control and 102 % of control | endpoint: mean survival time, dose: 400.0 mg/kg/injection, schedule: Q04DX003 (ip), vehicle: saline 98 % of control

Fc1ccc(CC(F)F)cc1
inactive: [1] 107 % of control | [3] 98 % of control | [5] 103 % of control

Cc1cc2c3ccc(C)[n+](C)c3ccc2n1C
inactive: endpoint: mean survival time, dose: 1.19 mg/kg/injection, schedule: Q01DX001 (ip), vehicle: saline 103 % of control | endpoint: mean survival time, dose: 2.37 mg/kg/injection, schedule: Q01DX001 (ip), vehicle: saline 109 % of control | endpoint: mean survival time, dose: 4.75 mg/kg/injection, schedule: Q01DX001 (ip), vehicle: saline 97 % of control
